Assay results taken from US20260272900A1 (Bayer Aktiengesellschaft, priority 2024, published 2026).

System: patients with heart failure and left ventricular ejection fraction ≥40% (HFmrEF/HFpEF)
Format: in vivo
Conditions: bilirubin Tertile 1 ≤0.4 mg/dL; N = 957

CCOc1ncc(C)c2c1[C@H](c1ccc(C#N)cc1OC)C(C(N)=O)=C(C)N2 [finerenone, (4S)-4-(4-cyano-2-methoxyphenyl)-5-ethoxy-2,8-dimethyl-1,4-dihydro-1,6-naphthyridine-3-carboxamide]
Total worsening HF events, event rate: 12.4 per 100 PY
